SMILES strings stand for the structures. Where two headings read alike, the source gives them in different places. Where a SMILES comes first, the peptide text is derived from it. [ ]: non-standard residue; d: D form. Lys(Me3) = C[N+](C)(C)CCCC[C@H](N)C(=O)O

In this experiment the target is T1, ATRXADD (Homo sapiens, UniProt P46100).
T1 construct: The pGEX-GP-2-ATRX ADD plasmid (Addgene plasmid #59698) [17] was transformed into BL21 cells for expression and purification; GST (N, cleaved yes); peptides GenScript #59698; host or cells: E. coli BL21
T1 sequence (P46100 159-296 limits assumed): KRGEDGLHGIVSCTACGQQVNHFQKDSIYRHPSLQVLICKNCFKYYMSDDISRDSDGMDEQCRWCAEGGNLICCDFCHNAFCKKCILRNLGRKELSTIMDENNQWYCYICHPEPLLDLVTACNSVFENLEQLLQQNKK
Description: Fluorescence polarization (FP) displacement assay. The format is binding. To be noted: for disruption of the H3:ATRXADD PPI in the FP assay, in words: truncated and modified H3 peptides.

The mark [1] stands for this setting: disruption of H3_1-15K9me3-FAM (0.75 µM):ATRXADD (5 µM) PPI, PBS, highest concentration tested 100 µM, ND = no displacement, read-out: FP Assay IC50.

As to `C[C@H](N)C(=O)N[C@@H](CCCNC(=N)N)C(=O)N[C@H](C(=O)N[C@@H](CCCC[N+](C)(C)C)C(=O)N[C@@H](CCC(N)=O)C(=O)N[C@H](C(=O)N[C@@H](C)C(=O)N[C@@H](CCCNC(=N)N)C(=O)N[C@@H](CCCC[N+](C)(C)C)C(=O)N[C@@H](CO)C(=O)N[C@H](C(=O)O)[C@@H](C)O)[C@@H](C)O)[C@@H](C)O` [H3_1-11K4me3K9me3], the “disruption of the H3:ATRXADD PPI in the FP assay, in words” value (from here on “disruption of the H3:ATRXADD PPI”) is “significantly reduced the activity”. Also, the IC50 under setting [1] is ≥ 100 µM.

With `C[C@H](NC(=O)[C@@H](NC(=O)[C@H](CCC(N)=O)NC(=O)[C@H](CCCCN)NC(=O)[C@@H](N)[C@@H](C)O)[C@@H](C)O)C(=O)N[C@@H](CCCNC(=N)N)C(=O)O` [Peptide H3_3-8] (H-TKQTAR-OH; N-terminus and C-terminus assumed), the half-maximal inhibitory concentration (IC50) was > 100 µM and the “disruption of the H3:ATRXADD PPI” value is “inactive”.

Consider `C[C@H](NC(=O)[C@@H](NC(=O)[C@H](CCC(N)=O)NC(=O)[C@H](CCCC[N+](C)(C)C)NC(=O)[C@@H](N)[C@@H](C)O)[C@@H](C)O)C(=O)N[C@@H](CCCNC(=N)N)C(=O)N[C@@H](CCCC[N+](C)(C)C)C(=O)N[C@@H](CO)C(=O)O` [H3_3-10K4me3K9me3] (H-T[Lys(Me3)]QTAR[Lys(Me3)]S-OH; N-terminus and C-terminus assumed), for which, under setting [1], the 50% inhibitory concentration (IC50) was > 100 µM.

Regarding `C[C@@H](O)[C@H](NC(=O)[C@H](CCC(N)=O)NC(=O)[C@H](CCCCN)NC(=O)[C@@H](NC(=O)[C@@H](N)CCCNC(=N)N)[C@@H](C)O)C(=O)O` [Peptide H3_2-6] (H-RTKQT-OH; N-terminus and C-terminus assumed), the IC50 was > 100 µM and the “disruption of the H3:ATRXADD PPI” value is “inactive”.

For the compound `C[C@H](NC(=O)[C@@H](NC(=O)[C@H](CCC(N)=O)NC(=O)[C@H](CCCCN)NC(=O)[C@@H](N)[C@@H](C)O)[C@@H](C)O)C(=O)N[C@@H](CCCNC(=N)N)C(=O)N[C@@H](CCCC[N+](C)(C)C)C(=O)N[C@@H](CO)C(=O)N[C@H](C(=O)O)[C@@H](C)O` [Peptide H3_3-11K9me3] (H-TKQTAR[Lys(Me3)]ST-OH; N-terminus and C-terminus assumed), the “disruption of the H3:ATRXADD PPI” value is on record as “completely abolished activity”. Moreover, the IC50 under setting [1] was > 100 µM.

Regarding `C[C@H](N)C(=O)N[C@@H](CCCNC(=N)N)C(=O)N[C@H](C(=O)N[C@@H](CCCC[N+](C)(C)C)C(=O)N[C@@H](CCC(N)=O)C(=O)N[C@H](C(=O)N[C@@H](C)C(=O)O)[C@@H](C)O)[C@@H](C)O` [Peptide H3_1-7K4me3] (H-ART[Lys(Me3)]QTA-OH), the IC50 was > 100 µM.

For `C[C@H](N)C(=O)N[C@@H](CCCNC(=N)N)C(=O)N[C@@H](CCCC[N+](C)(C)C)C(=O)N[C@@H](CO)C(=O)N[C@H](C(=O)O)[C@@H](C)O` [Peptide H3_7-11K9me3] (H-AR[Lys(Me3)]ST-OH; N-terminus and C-terminus assumed), the IC50 was > 100 µM and the “disruption of the H3:ATRXADD PPI” value is “inactive”.

Consider `C[C@@H](O)[C@H](N)C(=O)N[C@@H](CCCCN)C(=O)N[C@@H](CCC(N)=O)C(=O)O` [Peptide H3_3-5] (H-Thr-Lys-Gln-OH; N-terminus and C-terminus assumed), for which the “disruption of the H3:ATRXADD PPI” value was “inactive”. Besides, under setting [1], the IC50 was > 100 µM.

As usually defined, the IC50 is the point on the concentration scale where inhibition reaches its midpoint.

The record behind these values is paper PMC7181051, “Probing the Protein-Protein Interaction between the ATRXADD Domain and the Histone H3 Tail” (Molecules, 2020).
